From US20240262832A1, “SMALL MOLECULE MODULATORS OF GLUCOCEREBROSIDASE ACTIVITY AND USES THEREOF” (Vanqua Bio, Inc., priority 2021, published 2024)

biological target: T1, GCase (Homo sapiens, UniProt P04062); experiment: activation of GCase in a live cell PFB assay in HELA cells; assay type: cell-based
T1 construct: endogenous in cells; host or cells: HeLa cells
T1 sequence (P04062 40-536): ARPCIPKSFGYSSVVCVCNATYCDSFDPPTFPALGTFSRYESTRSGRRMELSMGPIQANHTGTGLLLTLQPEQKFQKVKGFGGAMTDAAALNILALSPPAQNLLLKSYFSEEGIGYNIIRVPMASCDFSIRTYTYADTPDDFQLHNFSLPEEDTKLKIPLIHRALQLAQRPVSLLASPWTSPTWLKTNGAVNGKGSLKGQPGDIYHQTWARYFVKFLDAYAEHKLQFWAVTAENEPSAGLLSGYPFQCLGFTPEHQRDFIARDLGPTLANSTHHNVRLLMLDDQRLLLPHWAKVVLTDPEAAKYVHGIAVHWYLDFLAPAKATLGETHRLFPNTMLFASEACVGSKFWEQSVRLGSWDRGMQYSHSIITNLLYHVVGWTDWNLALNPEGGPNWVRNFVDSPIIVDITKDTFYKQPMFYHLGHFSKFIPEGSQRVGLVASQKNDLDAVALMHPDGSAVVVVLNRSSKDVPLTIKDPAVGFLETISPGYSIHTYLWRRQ

Row | Compound | EC50 [µM]
1 | FC(F)Cn1ncc2ncc(N3C[C@@H]4[C@@H](COc5cncc(C(F)(F)F)c5)[C@@H]4C3)nc21 [Compound 62, (1R,5S,6S)-3-[1-(2,2-difluoroethyl)-1H-pyrazolo[3,4-b]pyrazin-6-yl]-6-({[5-(trifluoromethyl)pyridin-3-yl]oxy}methyl)-3-azabicyclo[3.1.0]hexane] | 10 to 50
2 | COc1ccc(OCC2CCN(c3nccnc3N(C)C)CC2)cc1 [Compound 441] | > 100
3 | Cn1c(-c2ccc(F)cc2)nc2nc(C(=O)N3CCCC(COc4cccnc4C(F)(F)F)C3)cnc21 (stereo not drawn) [Compound 97, (2-(4-Fluorophenyl)-1-methyl-1H-imidazo[4,5-b]pyrazin-5-yl)(3-(((2-(trifluoromethyl)pyridin-3-yl)oxy)methyl)piperidin-1-yl)methanone] | > 100
4 | O=C(c1cc(=O)c2cc(Cl)ccc2o1)N1CCCC(COc2ccccc2)C1 (stereo not drawn) [Compound 8] | 10 to 50
5 | O=C(CCCc1ccccc1)N1CCC(Oc2ccc(C(F)(F)F)cn2)CC1 [Compound 386] | 10 to 50
6 | O=C(c1ccc2cc[nH]c2c1)N1CCC(Oc2cc(C(F)(F)F)ccn2)CC1 [Compound 322, (1H-Indol-6-yl)(4-((4-(trifluoromethyl)pyridin-2-yl)oxy)piperidin-1-yl)methanone] | 50 to 100
7 | O=C(c1cncc(-c2nncs2)n1)N1C[C@@H]2[C@@H](COc3cccc(C(F)(F)F)n3)[C@@H]2C1 [Compound 226, (1R,5S,6S)-3-[6-(1,3,4-thiadiazol-2-yl)pyrazine-2-carbonyl]-6-({[6-(trifluoromethyl)pyridin-2-yl]oxy}methyl)-3-azabicyclo[3.1.0]hexane] | 10 to 50
8 | O=C(N1CCCC(COc2ncccc2C(F)(F)F)C1)N1CCOC(Cc2ccccc2)C1 (stereo not drawn) [Compound 258, (2-Benzylmorpholino)(3-(((3-(trifluoromethyl)pyridin-2-yl)oxy)methyl)piperidin-1-yl)methanone] | 50 to 100

Second part, the compound after the results:

Row | EC50 [µM] | Compound
9 | < 10 | C[C@@H]1C[C@H](COc2cccnc2C(F)(F)F)CN(c2cnc3cnn(CC45CC(C4)C5)c3n2)C1 [Compound 281, 1-(Bicyclo[1.1.1]pentan-1-ylmethyl)-6-((3R,5S)-3-methyl-5-(((2-(trifluoromethyl)pyridin-3-yl)oxy)methyl)piperidin-1-yl)-1H-pyrazolo[3,4-b]pyrazine]
10 | < 10 | C[C@H]1C[C@@H](COc2cccnc2C(F)(F)F)CN(c2cnc3cnn(CC4COC4)c3n2)C1 (single isomer, unassigned) [Compound 233b]
11 | 10 to 50 | CCn1c(=O)n(CC)c2nc(N3C[C@@H](C)C[C@H](COc4cccnc4C(F)(F)F)C3)cnc21 [Compound 288b, 1,3-Diethyl-5-((3S,5S)-3-methyl-5-(((2-(trifluoromethyl)pyridin-3-yl)oxy)methyl)piperidin-1-yl)-1,3-dihydro-2H-imidazo[4,5-b]pyrazin-2-one]
12 | 50 to 100 | C[C@@H]1CC[C@H](COc2cc(C(F)(F)F)ccn2)CN1c1cnc2cnn(CC(F)F)c2n1 [Compound 276, 1-(2,2-Difluoroethyl)-6-((2R,5S)-2-methyl-5-(((4-(trifluoromethyl)pyridin-2-yl)oxy)methyl)piperidin-1-yl)-1H-pyrazolo[3,4-b]pyrazine]
13 | > 100 | C[C@@H]1CCN(c2cnc3cnn(CC(F)F)c3n2)C[C@@H]1COc1cccnc1C(F)(F)F [Compound 48a, 1-(2,2-Difluoroethyl)-6-((3R,4R)-4-methyl-3-(((2-(trifluoromethyl)pyridin-3-yl)oxy)methyl)piperidin-1-yl)-1H-pyrazolo[3,4-b]pyrazine]
14 | 10 to 50 | CCn1ncc2ncc(N3CCCC(COc4ccccc4C(F)(F)F)C3)nc21 (stereo not drawn) [Compound 16, 1-{1-ethylpyrazolo[3,4-b]pyrazin-6-yl}-3-[2-(trifluoromethyl)phenoxymethyl]piperidine]
15 | < 10 | COCCn1ncc2ncc(N3CC(COc4cccnc4C(F)(F)F)CCC3C)nc21 (stereo not drawn) [Compound 123, 1-(2-Methoxyethyl)-6-(2-methyl-5-(((2-(trifluoromethyl)pyridin-3-yl)oxy)methyl)piperidin-1-yl)-1H-pyrazolo[3,4-b]pyrazine]
